Data on 3 compounds can be found in patent US20050113283A1, “Methods of treating conditions associated with an EDG-4 receptor” (priority 2002, published 2005).

The test system of test [1] is human Edg-4 receptor. Kind of test: Calcium mobilization assay (FLIPR), HTC rat hepatoma cells transfected with human Edg-4. It is filed as cell-based. The conditions noted are these: Edg-4 relative to other Edg receptors. The text has this:
(§1) LPA receptors such as Edg-4, couple to calcium effector pathways, and result in increases in intracellular calcium following receptor activation (An et al., Molecular Pharmacology, 54:881-888, 1998, incorporated herein by reference). This biological response lends itself to a very efficient, high-throughput screen using a Fluorescence Imaging Plate Reader (FLIPR; Molecular Devices, Sunnyvale, Calif.). The FLIPR system is a real-time, cell-based assay system with continuous fluorescence detection using a cooled CCD camera. The FLIPR system was used to developing an Edg-4 receptor screen. Rat hepatoma cells stably expressing Edg-4 receptor were plated on 384-well plates and loaded with a calcium dye loading kit (Molecular Devices, Sunnyvale, Calif.) for 1 hour at room temperature. Cells were then placed on the FLIPR^354 (Molecular Devices, Sunnyvale, Calif.) and excited by an argon laser at 488 nm. The data for the entire 384-well plate was updated every second. An integrated robotic pipettor allowed for simultaneous compound addition into each individual well in the plate.
On the technique in general: Calcium flux is commonly read through the fluorescence of an indicator in the cells.

For another test, the target named is T1, PLA2-II (Crotalus atrox, UniProt P00624).
T1 construct: Source: Crotalus atrox; from tissue
T1 sequence (P00624 17-138): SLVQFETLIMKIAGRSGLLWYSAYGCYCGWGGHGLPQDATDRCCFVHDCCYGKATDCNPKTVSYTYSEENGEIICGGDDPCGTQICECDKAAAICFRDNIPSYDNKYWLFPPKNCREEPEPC
The test is described as follows: Enzyme assay Phospholipase PLA2-II. It is filed as biochemical. The conditions noted are these: 300 μM; significance >50%. The protocol:
8. Phospholipase PLA2-II (Katsumata et al., 1986, Anal. Biochem. 154:676-681).
Substrate: 0.03 μCi 1 -Palmitoyl-2-[1-^14C]oleoyl-3-phosphatidylcholine
Pre-Incubation Time/Temp: 5 minutes at 37° C.
Incubation Time/Temp: 5 minutes at 37° C.
Incubation Buffer: 0.1M glycine-NaOH, […], pH 9.0
Quantitation Method: Quantitation of [^14C]oleate
Significance Criteria: >50% of max stimulation or inhibition

For a further test, the target named is T2, PLC (Bacillus cereus, UniProt P09598).
T2 construct: Source: Bacillus cereus; host or cells: Bacillus cereus
T2 sequence (P09598 39-283 limits assumed): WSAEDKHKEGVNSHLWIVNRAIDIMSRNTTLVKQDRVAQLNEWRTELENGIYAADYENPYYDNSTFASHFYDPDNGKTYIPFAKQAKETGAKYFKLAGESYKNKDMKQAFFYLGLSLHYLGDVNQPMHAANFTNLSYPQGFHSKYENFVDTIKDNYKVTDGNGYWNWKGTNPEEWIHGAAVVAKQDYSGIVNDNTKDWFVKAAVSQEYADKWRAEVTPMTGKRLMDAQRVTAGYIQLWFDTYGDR
The test is described as follows: Enzyme assay Phospholipase PLC. In kind it is biochemical. To be noted: 10 μM. The protocol:
9. Phospholipase PLC (Hergenrother et al, 1995, Anal. Biochem. 229:313-316).
Substrate: 400 μM 1,2-Dihexanoyl sn-glycerol-3-phosphocholine
Pre-Incubation Time/Temp: 10 minutes at 37° C.
Incubation Time/Temp: 5 minutes at 37 ° C.
Incubation Buffer: 0.1 M 3,3-dimethylglutaric acid, pH 7.3
Quantitation Method: Spectrophotometric quantitation of phosphorylcholine

The next test concerns the target T3, Potassium channel [KATP] (Cricetus cricetus, UniProt Q09427).
T3 construct: endogenous in cells; host or cells: HIT-T15 Syrian hamster pancreatic beta cells
Kind of test: Radioligand binding Potassium Channel [KATP]. Also noted: species or system Syrian hamster. To be noted: 10 μM; significance ≧50%. The protocol: Source: Syrian hamster pancreatic beta cells HIT-T15
Ligand: 5 nM ^3H Glyburide
Incubation Time/Temp: 2 hours at 25° C.
Incubation Buffer: 50 mM MOPS, 0.1 mM CaCl2, pH 7.4
NonSpecific Ligand: 10 μM Glyburide
Quantitation Method: Radioligand Binding
Significance Criteria: ≧50% of max stimulation or inhibition

A further test has as its target T4, Edg-1 (Homo sapiens, UniProt P21453).
T4 construct: expressed in transfected cells; host or cells: HTC rat hepatoma cells (from the earlier reading)
Kind of test: Calcium mobilization assay (FLIPR), HTC cells expressing Edg 1. In kind it is cell-based. To be noted: agonist.

The next test has as its target T5, Edg-2 (Homo sapiens, UniProt Q92633).
T5 construct: expressed in transfected cells; host or cells: HTC rat hepatoma cells (from the earlier reading)
Kind of test: Calcium mobilization assay (FLIPR), HTC cells expressing Edg 2. It is filed as cell-based. To be noted: agonist.

The next test concerns the target T6, Edg-3 (Homo sapiens, UniProt Q99500).
T6 construct: expressed in transfected cells; host or cells: HTC rat hepatoma cells (from the earlier reading)
Kind of test: Calcium mobilization assay (FLIPR), HTC cells expressing Edg 3. It is filed as cell-based. To be noted: agonist.

Test [2] has as its target T7, human Edg-4 receptor (Homo sapiens, UniProt Q9HBW0).
T7 construct: IC50 Edg-4; other: agonist, calcium mobilization; potency relative to compound 101; calcium response (agonist)
Kind of test: Calcium mobilization assay (FLIPR), HTC rat hepatoma cells transfected with human Edg-4. In kind it is cell-based.
Text: as §1

The target in the next test is T8, Edg-5 (Homo sapiens, UniProt O95136).
T8 construct: expressed in transfected cells; host or cells: HTC rat hepatoma cells (from the earlier reading)
T8 sequence (O95136 whole entry): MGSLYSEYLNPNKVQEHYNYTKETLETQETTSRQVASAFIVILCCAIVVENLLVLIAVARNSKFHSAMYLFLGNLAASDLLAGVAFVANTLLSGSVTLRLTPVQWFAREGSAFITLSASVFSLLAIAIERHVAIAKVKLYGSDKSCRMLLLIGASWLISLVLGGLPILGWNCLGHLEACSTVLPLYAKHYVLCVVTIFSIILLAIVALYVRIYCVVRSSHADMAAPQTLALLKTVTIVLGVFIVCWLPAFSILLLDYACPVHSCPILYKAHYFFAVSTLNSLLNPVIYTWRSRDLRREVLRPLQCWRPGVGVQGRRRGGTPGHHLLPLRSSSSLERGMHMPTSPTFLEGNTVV
The test is described as follows: Calcium mobilization assay (FLIPR), HTC cells expressing Edg 5. It is filed as cell-based. The conditions noted are these: agonist.

The next test concerns the target T9, Edg-6 (Homo sapiens, UniProt O95977).
T9 construct: expressed in transfected cells; host or cells: HTC rat hepatoma cells (from the earlier reading)
T9 sequence (O95977 1-384): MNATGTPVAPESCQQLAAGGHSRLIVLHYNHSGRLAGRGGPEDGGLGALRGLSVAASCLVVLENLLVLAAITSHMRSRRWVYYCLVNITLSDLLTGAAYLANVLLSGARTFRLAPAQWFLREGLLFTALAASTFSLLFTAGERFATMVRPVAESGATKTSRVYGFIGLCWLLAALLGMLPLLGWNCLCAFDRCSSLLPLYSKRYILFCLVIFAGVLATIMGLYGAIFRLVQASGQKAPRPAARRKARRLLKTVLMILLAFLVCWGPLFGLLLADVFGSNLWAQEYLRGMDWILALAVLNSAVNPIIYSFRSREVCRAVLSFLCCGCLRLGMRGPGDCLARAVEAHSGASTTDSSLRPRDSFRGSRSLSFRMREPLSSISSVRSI
Kind of test: Calcium mobilization assay (FLIPR), HTC cells expressing Edg 6. It is filed as cell-based. To be noted: agonist.

A further test deals with T10, Edg-7 (Homo sapiens, UniProt Q9UBY5).
T10 construct: expressed in transfected cells; host or cells: HTC rat hepatoma cells (from the earlier reading)
T10 sequence (Q9UBY5 1-353): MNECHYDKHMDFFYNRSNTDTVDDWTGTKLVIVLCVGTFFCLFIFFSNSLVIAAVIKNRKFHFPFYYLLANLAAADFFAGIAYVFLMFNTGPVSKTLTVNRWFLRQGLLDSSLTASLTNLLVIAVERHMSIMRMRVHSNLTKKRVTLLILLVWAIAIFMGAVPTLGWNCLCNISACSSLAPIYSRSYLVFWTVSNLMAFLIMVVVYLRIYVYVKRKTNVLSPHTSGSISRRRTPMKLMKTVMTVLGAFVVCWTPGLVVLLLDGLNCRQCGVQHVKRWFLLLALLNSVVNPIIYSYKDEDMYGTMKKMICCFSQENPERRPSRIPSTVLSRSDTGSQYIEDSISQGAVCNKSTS
The test is described as follows: Calcium mobilization assay (FLIPR), HTC cells expressing Edg 7. It is filed as cell-based.

The next test addresses T11, Edg-8 (Homo sapiens, UniProt Q9H228).
T11 construct: expressed in transfected cells; host or cells: HTC rat hepatoma cells (from the earlier reading)
The test is described as follows: Calcium mobilization assay (FLIPR), HTC cells expressing Edg 8. In kind it is cell-based. The conditions noted are these: agonist.

Test [3] is described as follows: Calcium mobilization assay, Null. In kind it is cell-based. To be noted: agonist.
Text: as §1

The subject of test [4] is CaOV3 human ovarian cancer cells. Kind of test: Calcium response in CaOV3 cells. In kind it is cell-based. To be noted: CaOV3, naturally express human Edg-4, FIG. 16.
Test [5] deals with human ovarian tumor growth within the chamber. The test is described as follows: In vivo Z-chamber study. The conditions noted are these: rats, 5 mg/kg every other day, harvested day 16, FIG. 14. The arrangement: species or system rat. The protocol:
The Z-chamber assay is a fibrin-based in vivo assay, wherein fibrin and thrombin are added through a port in a two-sided chamber sealed by a nylon mesh. The chamber is implanted in the subcutaneous space of an animal and harvested for evaluation. Fibrin matrices are formed in normal wound healing and are used by tumors to sustain growth, thus Z-chambers are designed to study, for example, angiogenesis, wound healing, and tumor growth. In addition, their design is useful, for example, in studies of localized gene expression, stem cell, adenoviral, and tissue generation.
The efficacy of 101 in an in vivo tumor model was examined by Z-chamber® (SRI, Menlo Park, Calif.) study. Each tumor chamber consisted of 150-160 μl cell suspension made by suspending 190 million cells in 20 ml fibrin (4 mg/ml). Following the introduction of cell suspension, 2 units of thrombin was added into each chamber and the mixture was allowed to gel for 5-7 minutes before implantation.
Rats were anesthetized with Nembutal (35 mg/kg). The skin of rats was surgically prepared with 70% alcohol. […]
101 was dissolved in a 1 to 1 cremophor:ethanol solution and diluted 4 times with 5% dextrose on water. […] The tumor thickness was measured and compared to a negative control, i.e., chambers with no treatment, and the positive treatment. […]

T7 sequence (Q9HBW0 1-340 limits assumed): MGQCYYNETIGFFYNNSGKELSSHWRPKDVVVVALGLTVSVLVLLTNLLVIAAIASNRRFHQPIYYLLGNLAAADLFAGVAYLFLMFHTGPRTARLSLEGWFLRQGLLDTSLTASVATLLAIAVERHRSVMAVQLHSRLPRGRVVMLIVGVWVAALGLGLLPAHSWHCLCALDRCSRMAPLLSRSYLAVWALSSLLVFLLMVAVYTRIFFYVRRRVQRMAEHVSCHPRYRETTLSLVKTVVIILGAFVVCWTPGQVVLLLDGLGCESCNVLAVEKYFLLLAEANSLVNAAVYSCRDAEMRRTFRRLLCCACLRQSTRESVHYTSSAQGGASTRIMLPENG
T3 sequence (Q09427 whole entry): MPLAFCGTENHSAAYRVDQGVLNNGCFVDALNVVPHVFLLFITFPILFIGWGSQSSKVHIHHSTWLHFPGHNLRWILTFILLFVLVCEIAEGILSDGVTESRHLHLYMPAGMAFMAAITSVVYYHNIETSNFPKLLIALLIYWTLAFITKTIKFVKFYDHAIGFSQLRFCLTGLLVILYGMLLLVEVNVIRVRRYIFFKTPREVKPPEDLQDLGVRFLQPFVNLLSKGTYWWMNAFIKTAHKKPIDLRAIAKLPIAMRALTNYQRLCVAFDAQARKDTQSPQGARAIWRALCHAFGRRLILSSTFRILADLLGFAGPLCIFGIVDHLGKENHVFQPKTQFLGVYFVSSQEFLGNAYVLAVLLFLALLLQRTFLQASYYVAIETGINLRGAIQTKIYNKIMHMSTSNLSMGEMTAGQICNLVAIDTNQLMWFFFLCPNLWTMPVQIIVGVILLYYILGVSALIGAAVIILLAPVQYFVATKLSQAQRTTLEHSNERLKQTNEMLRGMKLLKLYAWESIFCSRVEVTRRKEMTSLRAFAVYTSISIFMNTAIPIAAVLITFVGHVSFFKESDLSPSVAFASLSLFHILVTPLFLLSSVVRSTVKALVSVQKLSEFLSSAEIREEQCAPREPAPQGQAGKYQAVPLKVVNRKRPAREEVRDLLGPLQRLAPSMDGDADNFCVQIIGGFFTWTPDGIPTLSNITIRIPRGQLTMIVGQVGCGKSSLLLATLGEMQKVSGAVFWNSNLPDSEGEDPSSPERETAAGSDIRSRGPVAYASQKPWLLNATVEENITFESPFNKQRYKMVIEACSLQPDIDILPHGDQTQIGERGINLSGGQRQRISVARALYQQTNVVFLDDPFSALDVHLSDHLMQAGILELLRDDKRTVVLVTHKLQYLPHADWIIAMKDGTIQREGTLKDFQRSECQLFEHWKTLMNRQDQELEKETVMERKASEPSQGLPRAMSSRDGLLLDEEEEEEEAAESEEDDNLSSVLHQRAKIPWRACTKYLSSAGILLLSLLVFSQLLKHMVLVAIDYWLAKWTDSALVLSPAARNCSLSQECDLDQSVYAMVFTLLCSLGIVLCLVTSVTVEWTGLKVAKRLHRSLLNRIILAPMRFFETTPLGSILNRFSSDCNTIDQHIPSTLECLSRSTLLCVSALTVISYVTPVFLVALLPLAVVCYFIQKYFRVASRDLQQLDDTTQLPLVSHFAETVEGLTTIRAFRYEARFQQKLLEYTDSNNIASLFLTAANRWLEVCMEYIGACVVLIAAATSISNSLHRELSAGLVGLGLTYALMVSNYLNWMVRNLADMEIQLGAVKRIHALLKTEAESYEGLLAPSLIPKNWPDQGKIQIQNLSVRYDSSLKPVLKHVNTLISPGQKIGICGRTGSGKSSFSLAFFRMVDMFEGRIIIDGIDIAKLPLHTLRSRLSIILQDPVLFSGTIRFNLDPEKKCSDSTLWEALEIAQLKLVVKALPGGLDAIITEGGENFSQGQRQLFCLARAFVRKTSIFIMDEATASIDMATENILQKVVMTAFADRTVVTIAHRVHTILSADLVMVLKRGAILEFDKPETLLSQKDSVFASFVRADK
T6 sequence (Q99500 whole entry): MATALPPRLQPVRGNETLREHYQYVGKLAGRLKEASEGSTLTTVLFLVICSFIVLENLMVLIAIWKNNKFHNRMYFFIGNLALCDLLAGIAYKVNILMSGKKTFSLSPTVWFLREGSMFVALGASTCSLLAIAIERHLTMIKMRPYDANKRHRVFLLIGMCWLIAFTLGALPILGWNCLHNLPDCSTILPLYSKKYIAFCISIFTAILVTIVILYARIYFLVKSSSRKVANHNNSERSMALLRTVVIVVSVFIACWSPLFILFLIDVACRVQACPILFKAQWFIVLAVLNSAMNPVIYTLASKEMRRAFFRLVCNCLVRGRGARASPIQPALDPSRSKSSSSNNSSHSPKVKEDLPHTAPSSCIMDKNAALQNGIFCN
T11 sequence (Q9H228 whole entry): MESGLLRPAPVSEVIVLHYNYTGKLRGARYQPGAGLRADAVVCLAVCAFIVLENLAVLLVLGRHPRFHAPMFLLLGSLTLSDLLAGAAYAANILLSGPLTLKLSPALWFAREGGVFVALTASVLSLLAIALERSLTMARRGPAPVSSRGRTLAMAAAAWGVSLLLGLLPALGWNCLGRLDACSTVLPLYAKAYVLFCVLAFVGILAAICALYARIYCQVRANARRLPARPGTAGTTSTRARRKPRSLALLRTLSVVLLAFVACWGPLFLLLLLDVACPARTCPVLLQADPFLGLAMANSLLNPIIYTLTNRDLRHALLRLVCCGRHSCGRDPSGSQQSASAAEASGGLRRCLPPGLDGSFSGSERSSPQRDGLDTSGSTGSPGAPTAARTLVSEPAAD
T5 sequence (Q92633 whole entry): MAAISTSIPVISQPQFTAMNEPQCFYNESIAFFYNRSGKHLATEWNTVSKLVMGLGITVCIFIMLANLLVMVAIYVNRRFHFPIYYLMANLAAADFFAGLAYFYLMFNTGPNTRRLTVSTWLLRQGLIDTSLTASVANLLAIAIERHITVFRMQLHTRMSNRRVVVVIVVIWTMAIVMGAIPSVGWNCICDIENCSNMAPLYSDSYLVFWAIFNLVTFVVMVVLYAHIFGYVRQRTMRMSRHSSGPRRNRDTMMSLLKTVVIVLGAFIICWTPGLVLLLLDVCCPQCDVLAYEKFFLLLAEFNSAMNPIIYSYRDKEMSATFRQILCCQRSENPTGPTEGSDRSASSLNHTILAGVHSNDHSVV
T4 sequence (P21453 whole entry): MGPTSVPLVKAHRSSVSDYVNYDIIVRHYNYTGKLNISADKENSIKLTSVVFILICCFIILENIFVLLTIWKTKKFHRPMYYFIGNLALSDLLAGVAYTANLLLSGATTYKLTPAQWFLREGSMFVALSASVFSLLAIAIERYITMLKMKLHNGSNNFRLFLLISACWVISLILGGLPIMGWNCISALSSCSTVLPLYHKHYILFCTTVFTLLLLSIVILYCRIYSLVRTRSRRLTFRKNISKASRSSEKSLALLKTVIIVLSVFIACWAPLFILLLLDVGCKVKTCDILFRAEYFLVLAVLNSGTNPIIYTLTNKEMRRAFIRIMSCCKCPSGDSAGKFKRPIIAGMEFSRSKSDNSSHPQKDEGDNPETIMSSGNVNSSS

Turning to `O=C(CC(=O)C(F)(F)F)Nc1cc(-c2ccccc2)n[nH]1` [Compound 101, 4,4,4-trifluoro-3-oxo-N-(5-phenyl-2H-pyrazol-3-yl)-butyramide], the “Fold-selectivity for Edg-4 (IC50)” value in the test on human Edg-4 receptor [1] (antagonists) is listed as greater than 29.9. Moreover, on PLA2-II, the “activity at PLA2-II” value was “no significant activity”. For the same compound, on PLC, the “activity at PLC” value is on record as “no significant activity”. Moreover, at Potassium channel [KATP], the “activity at Potassium channel [KATP]” value is given as “no significant activity”.
The term EC50 denotes the concentration giving half of the maximal effect. As for `COc1cc2c(cc1OC)C(c1c(Cl)cccc1Cl)NC(=O)C2` (stereo not drawn) [Compound 125, 1-(2,6-dichlorophenyl)-6,7-dimethoxy-1,4-dihydro-2H-isoguinolin-3-one], the 50% effective concentration (EC50) on Edg-1 is greater than 25 µM; on Edg-2, greater than 25 µM; at Edg-3 it was greater than 25 µM; on human Edg-4 receptor [2] (agonist, calcium mobilization) it was 5.2 µM; on Edg-5, greater than 25 µM; at Edg-6, greater than 25 µM. The concentration giving a half-maximal response (EC50) at Edg-7 (agonist, calcium mobilization) was 2.5 µM; at Edg-8, greater than 25 µM; in test [3], greater than 25 µM. In addition, the “calcium response (agonist)” value on human Edg-4 receptor [2] (HTC cells transfected with human Edg-4, FIG. 15) is recorded as “elicits a calcium response”. Besides, in the test with human Edg-4 receptor [1] (agonists), the “Fold Selectivity for Edg-4 (EC50)” value is on record as greater than 4.8. The “agonist activity at the Edg-7 receptor” value on Edg-7 is on record as “acts as an agonist”. Moreover, the “calcium response elicited by 125, inhibited by antagonist 103” value in [4] is “specificity is also observed”.
For `CC(=O)O[C@H]1C(=O)[C@@]2(C)[C@H]([C@H](OC(=O)c3ccccc3)[C@]3(O)C[C@H](OC(=O)[C@H](O)[C@@H](NC(=O)c4ccccc4)c4ccccc4)C(C)=C1C3(C)C)[C@]1(OC(C)=O)CO[C@@H]1C[C@@H]2O` [Taxol], in test [5], the “inhibition of tumor growth (positive control)” value was “inhibition of tumor growth”.
